From PubChem BioAssay AID288 (DTP/NCI, 2004) come the findings set out here.

The subject of this assay is BDF1 mice, M5076 sarcoma s.c., survival/tumor T/C. Nature of the assay: NCI In Vivo Anticancer Drug Screen. Data for tumor model Sarcoma M5076 (subcutaneous) in B6D2F1 (BDF1) mice. The procedure: The antitumor activity of compounds was measured in mice bearing transplantable tumors. Survival or tumor size were measured and the results are expressed as the measurement made in the treated group (T) divided by the measurement made in the vehicle treated control group (C). The tumor model used in this assay is Sarcoma M5076 (subcutaneous) in B6D2F1 (BDF1) mice

“And” between values parts separate entries of the source, which are not always exact repeats. Equal values may be shown once. Results filed as inconclusive are left out.

Turning to `O=C1c2ccccc2C(=O)c2c(NCCNCCO)ccc(O)c21`, the T/C reads like this: (endpoint: median survival time, dose: 12.5 mg/kg/injection, schedule: Q04DX003 (ip), vehicle: saline with Tween-80, higher = longer survival) 90 % of control; (endpoint: median survival time, dose: 25.0 mg/kg/injection, schedule: Q04DX003 (ip), vehicle: saline with Tween-80, higher = longer survival) 116 % of control; (endpoint: median survival time, dose: 50.0 mg/kg/injection, schedule: Q04DX003 (ip), vehicle: saline with Tween-80, higher = longer survival) 103 % of control; (endpoint: median survival time, dose: 100.0 mg/kg/injection, schedule: Q04DX003 (ip), vehicle: saline with Tween-80, higher = longer survival) 104 % of control and 107 % of control; (endpoint: median survival time, dose: 150.0 mg/kg/injection, schedule: Q04DX003 (ip), vehicle: saline with Tween-80, higher = longer survival) 122 % of control.

Regarding `O=C1c2ccccc2C(=O)c2c(NCCNCCO)ccc(NCCNCCO)c21`, the T/C is 100 % of control (endpoint: median survival time, dose: 7.78 mg/kg/injection, schedule: Q04DX004 (ip), vehicle: saline, higher = longer survival); 102 % of control (endpoint: median survival time, dose: 7.78 mg/kg/injection, schedule: Q04DX004 (iv), vehicle: saline, higher = longer survival); 96 % of control (endpoint: median survival time, dose: 13.0 mg/kg/injection, schedule: Q04DX004 (ip), vehicle: saline, higher = longer survival); 88 % of control (endpoint: median survival time, dose: 13.0 mg/kg/injection, schedule: Q04DX004 (iv), vehicle: saline, higher = longer survival); 90 % of control (endpoint: median survival time, dose: 21.6 mg/kg/injection, schedule: Q04DX004 (ip), vehicle: saline, higher = longer survival); 100 % of control (endpoint: median survival time, dose: 21.6 mg/kg/injection, schedule: Q04DX004 (iv), vehicle: saline, higher = longer survival). Moreover, for the setting “endpoint: median survival time, dose: 36.0 mg/kg/injection, schedule: Q04DX004 (ip), vehicle: saline, higher = longer survival”, the T/C was 103 % of control.

For the compound `CCOc1cc(/C=N/NC(=O)N(c2ccccc2)c2ccccc2)ccc1O`, the T/C by setting is: (endpoint: median survival time, dose: 50.0 mg/kg/injection, schedule: Q01DX009 (ip), vehicle: saline with Tween-80, higher = longer survival) 98 % of control; (endpoint: median survival time, dose: 100.0 mg/kg/injection, schedule: Q01DX009 (ip), vehicle: saline with Tween-80, higher = longer survival) 99 % of control; (endpoint: median survival time, dose: 200.0 mg/kg/injection, schedule: Q01DX009 (ip), vehicle: saline with Tween-80, higher = longer survival) 92 % of control.

In the case of `NC(CSC(c1ccccc1)(c1ccccc1)c1ccccc1)C(=O)O` (stereo not drawn), the T/C is 103 % of control (endpoint: mean tumor weight, dose: 17.5 mg/kg/injection, schedule: Q02DX011 (ip), vehicle: acid diluted with saline, higher = larger tumour); 71 % of control (endpoint: mean tumor weight, dose: 17.5 mg/kg/injection, schedule: Q02DX011 (ip), vehicle: saline, higher = larger tumour); 87 % of control (endpoint: mean tumor weight, dose: 35.0 mg/kg/injection, schedule: Q02DX011 (ip), vehicle: acid diluted with saline, higher = larger tumour); 53 % of control (endpoint: mean tumor weight, dose: 35.0 mg/kg/injection, schedule: Q02DX011 (ip), vehicle: saline, higher = larger tumour); 24 % of control (endpoint: mean tumor weight, dose: 70.0 mg/kg/injection, schedule: Q02DX011 (ip), vehicle: acid diluted with saline, higher = larger tumour); 37 % of control (endpoint: mean tumor weight, dose: 70.0 mg/kg/injection, schedule: Q02DX011 (ip), vehicle: saline, higher = larger tumour). Further, the T/C is, setting by setting: (endpoint: median tumor weight (est.), dose: 17.5 mg/kg/injection, schedule: Q02DX011 (ip), vehicle: acid diluted with saline, higher = larger tumour) 490 % of control; (endpoint: median tumor weight (est.), dose: 17.5 mg/kg/injection, schedule: Q02DX011 (ip), vehicle: saline, higher = larger tumour) 65 % of control; (endpoint: median tumor weight (est.), dose: 35.0 mg/kg/injection, schedule: Q02DX011 (ip), vehicle: acid diluted with saline, higher = larger tumour) 336 % of control; (endpoint: median tumor weight (est.), dose: 35.0 mg/kg/injection, schedule: Q02DX011 (ip), vehicle: saline, higher = larger tumour) 49 % of control; (endpoint: median tumor weight (est.), dose: 70.0 mg/kg/injection, schedule: Q02DX011 (ip), vehicle: acid diluted with saline, higher = larger tumour) 293 % of control; (endpoint: median tumor weight (est.), dose: 70.0 mg/kg/injection, schedule: Q02DX011 (ip), vehicle: saline, higher = larger tumour) 5 % of control.

`CC(=O)O[C@H]1C(=O)[C@@]2(C)[C@H]([C@H](OC(=O)c3ccccc3)[C@]3(O)C[C@H](OC(=O)[C@H](O)[C@@H](NC(=O)c4ccccc4)c4ccccc4)C(C)=C1C3(C)C)[C@]1(OC(C)=O)CO[C@@H]1C[C@@H]2O`: the T/C (endpoint: mean tumor weight, dose: 10.0 mg/kg/injection, schedule: Q02DX011 (ip), vehicle: Klucel (hydroxypropylcellulose) (HPC), higher = larger tumour) is 103 % of control; the T/C (endpoint: mean tumor weight, dose: 20.0 mg/kg/injection, schedule: Q02DX011 (ip), vehicle: Klucel (hydroxypropylcellulose) (HPC), higher = larger tumour) was 78 % of control; the T/C (endpoint: mean tumor weight, dose: 40.0 mg/kg/injection, schedule: Q02DX011 (ip), vehicle: Klucel (hydroxypropylcellulose) (HPC), higher = larger tumour) was 57 % of control; the T/C (endpoint: median survival time, dose: 1.32 mg/kg/injection, schedule: Q02DX011 (ip), vehicle: Klucel (hydroxypropylcellulose) (HPC), higher = longer survival) is 108 % of control; the T/C (endpoint: median survival time, dose: 1.32 mg/kg/injection, schedule: Q02DX011 (ip), vehicle: other, higher = longer survival) was 115 % of control; the T/C (endpoint: median survival time, dose: 1.98 mg/kg/injection, schedule: Q02DX011 (ip), vehicle: Klucel (hydroxypropylcellulose) (HPC), higher = longer survival) is 111 % of control. Further, the T/C reads like this: (endpoint: median survival time, dose: 1.98 mg/kg/injection, schedule: Q02DX011 (ip), vehicle: other, higher = longer survival) 109 % of control; (endpoint: median survival time, dose: 2.5 mg/kg/injection, schedule: Q04DX003 (ip), vehicle: Klucel (hydroxypropylcellulose) (HPC), higher = longer survival) 85 % of control; (endpoint: median survival time, dose: 2.96 mg/kg/injection, schedule: Q02DX011 (ip), vehicle: Klucel (hydroxypropylcellulose) (HPC), higher = longer survival) 103 % of control; (endpoint: median survival time, dose: 4.44 mg/kg/injection, schedule: Q02DX011 (ip), vehicle: Klucel (hydroxypropylcellulose) (HPC), higher = longer survival) 111 % of control; (endpoint: median survival time, dose: 4.44 mg/kg/injection, schedule: Q02DX011 (ip), vehicle: other, higher = longer survival) 115 % of control; (endpoint: median survival time, dose: 5.0 mg/kg/injection, schedule: Q04DX003 (ip), vehicle: Klucel (hydroxypropylcellulose) (HPC), higher = longer survival) 103 % of control. The T/C (endpoint: median survival time, dose: 6.67 mg/kg/injection, schedule: Q02DX011 (ip), vehicle: Klucel (hydroxypropylcellulose) (HPC), higher = longer survival) was 119 % of control; the T/C (endpoint: median survival time, dose: 6.67 mg/kg/injection, schedule: Q02DX011 (ip), vehicle: other, higher = longer survival) is 112 % of control; the T/C (endpoint: median survival time, dose: 10.0 mg/kg/injection, schedule: Q02DX011 (ip), vehicle: Klucel (hydroxypropylcellulose) (HPC), higher = longer survival) was 110 % of control; the T/C (endpoint: median survival time, dose: 10.0 mg/kg/injection, schedule: Q02DX011 (ip), vehicle: other, higher = longer survival) was 106 % of control; the T/C (endpoint: median survival time, dose: 10.0 mg/kg/injection, schedule: Q04DX003 (ip), vehicle: Klucel (hydroxypropylcellulose) (HPC), higher = longer survival) is 109 % of control; the T/C (endpoint: median survival time, dose: 15.0 mg/kg/injection, schedule: Q02DX011 (ip), vehicle: Klucel (hydroxypropylcellulose) (HPC), higher = longer survival) is 91 % of control. Also, the T/C (endpoint: median survival time, dose: 15.0 mg/kg/injection, schedule: Q02DX011 (ip), vehicle: other, higher = longer survival) is 107 % of control; the T/C (endpoint: median survival time, dose: 22.5 mg/kg/injection, schedule: Q02DX011 (ip), vehicle: other, higher = longer survival) is 108 % of control; the T/C (endpoint: median tumor weight (est.), dose: 1.32 mg/kg/injection, schedule: Q02DX011 (ip), vehicle: Klucel (hydroxypropylcellulose) (HPC), higher = larger tumour) was 83 % of control; the T/C (endpoint: median tumor weight (est.), dose: 1.32 mg/kg/injection, schedule: Q02DX011 (ip), vehicle: other, higher = larger tumour) is 106 % of control; the T/C (endpoint: median tumor weight (est.), dose: 1.98 mg/kg/injection, schedule: Q02DX011 (ip), vehicle: Klucel (hydroxypropylcellulose) (HPC), higher = larger tumour) is 73 % of control; the T/C (endpoint: median tumor weight (est.), dose: 1.98 mg/kg/injection, schedule: Q02DX011 (ip), vehicle: other, higher = larger tumour) was 96 % of control. Further, the T/C is 87 % of control (endpoint: median tumor weight (est.), dose: 2.96 mg/kg/injection, schedule: Q02DX011 (ip), vehicle: Klucel (hydroxypropylcellulose) (HPC), higher = larger tumour); 87 % of control (endpoint: median tumor weight (est.), dose: 2.96 mg/kg/injection, schedule: Q02DX011 (ip), vehicle: other, higher = larger tumour); 62 % of control (endpoint: median tumor weight (est.), dose: 4.44 mg/kg/injection, schedule: Q02DX011 (ip), vehicle: Klucel (hydroxypropylcellulose) (HPC), higher = larger tumour); 76 % of control (endpoint: median tumor weight (est.), dose: 4.44 mg/kg/injection, schedule: Q02DX011 (ip), vehicle: other, higher = larger tumour); 58 % of control (endpoint: median tumor weight (est.), dose: 6.67 mg/kg/injection, schedule: Q02DX011 (ip), vehicle: Klucel (hydroxypropylcellulose) (HPC), higher = larger tumour); 79 % of control (endpoint: median tumor weight (est.), dose: 6.67 mg/kg/injection, schedule: Q02DX011 (ip), vehicle: other, higher = larger tumour). Moreover, the T/C by setting is: (endpoint: median tumor weight (est.), dose: 10.0 mg/kg/injection, schedule: Q02DX011 (ip), vehicle: other, higher = larger tumour) 63 % of control; (endpoint: median tumor weight (est.), dose: 15.0 mg/kg/injection, schedule: Q02DX011 (ip), vehicle: Klucel (hydroxypropylcellulose) (HPC), higher = larger tumour) 73 % of control; (endpoint: median tumor weight (est.), dose: 15.0 mg/kg/injection, schedule: Q02DX011 (ip), vehicle: other, higher = larger tumour) 59 % of control; (endpoint: median tumor weight (est.), dose: 20.0 mg/kg/injection, schedule: Q02DX011 (ip), vehicle: Klucel (hydroxypropylcellulose) (HPC), higher = larger tumour) 63 % of control; (endpoint: median tumor weight (est.), dose: 22.5 mg/kg/injection, schedule: Q02DX011 (ip), vehicle: other, higher = larger tumour) 38 % of control; (endpoint: median tumor weight (est.), dose: 40.0 mg/kg/injection, schedule: Q02DX011 (ip), vehicle: Klucel (hydroxypropylcellulose) (HPC), higher = larger tumour) 31 % of control.
